According to patent publication US20110028554A1, “PHARMACEUTICAL COMPOSITIONS COMPRISING DIIODOTHYRONINE AND THEIR THERAPEUTIC USE” (UNIVERSITE JOSEPH FOURIER, priority 2007, published 2011):

Legend:
[1] = test system: nuclear receptors of the thyroid hormones, TRα-1 and TRβ-1; conditions: literature; cited from earlier work
[2] = Growth rate (body weight) of Wistar rats with subcutaneous continuous-release pellet; type: in vivo; conditions: high dosage 25 μg/100 g BW
Protocol: (§1) Adult male rat bred in the animal room facilities of Laboratory of Fundamental and Applied. Bioenergetics (Wistar strain) or purchased from Charles-River Laboratories, Domaine des oncins, L'ARBRESLE France [(genetically obese normoglycemic (Zucker or Fa/Fa) or diabetic (ZDF)] were caged individually in stainless steel hanging cages and maintained in a 22° C., 50±10% relative humidity and 12 h:12 h light:dark environment. All animals were fed ad libitum with a standard rat chow (Safe A04, Villemoisson, France) and tap water. Body mass and food intake were recorded twice/thrice a week and fresh food was provided, at the same time to ensure minimal disturbance to the animals' food, behavior.
(§2) Eight-week old rats (300 g±10 g) were anesthetized by simultaneous intraperitoneal injection of diazepam 4 mg/kg and ketamine 100 mg/kg. In order to maintain body temperature during the surgery (10 min), animals were placed on a warm blanket. After interscapular shaving, a small incision of 0.5 cm of the skin allows the subcutaneous implantation of a small pellet (containing rT3 or 3′,3-T2) with a 10-gauge precision trochar. The pellets, manufactured by Innovative Research of America (Sarasota, Fla., USA) are constituted of a biodegradable matrix that effectively and continuously release the active product in the animal.
(§3) 3-5 diiodothyronine (3-5 T2) or 3-3′diiodothyronine (3-3′ T2) were used at different doses (5, 0.5, or 0.1 mg/pellet) were implanted in order to provide a continuous and constant drug delivery over 60 days (which represents 25 μg, 2.5 μg or 0.5 μg/day/100 g BW).

[3] = Food intake of Wistar rats; type: in vivo; conditions: high dosage 25 μg/100 g BW
Protocol: as §1, §2, §3

[4] = Body composition (adipose tissues, skeletal muscles, brown adipose tissue) of Wistar rats; type: in vivo; conditions: high dosage 25 μg/100 g BW
Excerpt: (§4) At the end of the experimental period, animals were sacrificed by decapitation, in order to avoid the well-known effects of general anesthetics on mitochondrial metabolism. Blood, samples were immediately collected and plasma was frozen for subsequent determination of serum metabolites and hormones. Liver, muscles and fat depots were quickly excised and weighed. Liver median lobe was rapidly freeze-clamped. Muscles (plantaris, soleus and gastrocnemius) were frozen in isopentane precooled in liquid nitrogen. Mesenteric fat consisted, of adipose tissue surrounding the gastro-intestinal tract from the gastro-oesophageal sphincter to the end of the rectum with special care taken in distinguishing and removing the pancreas. Retroperitoneal fat pad was taken as the distinct depot behind each kidney along the lumbar muscles. Epididymal fat consisted, of adipose tissue on top of the epididymis. For subcutaneous depot measurement, a rectangular piece of skin was taken on the right side of each animal from the median line of the abdomen between the spine and the right hip to the first rib. Interscapular brown adipose tissue was removed and dissected free from adjacent muscles and white adipose tissue. The heart ventricles, the right kidney and the spleen were also excised, weighed and frozen.

liver mitochondria = test: Liver mitochondrial oxygen consumption (JO2) of treated Wistar rats; type: in vivo; conditions: high dosage 25 μg/100 g BW
Protocol: (§5) All measurements were performed using mitochondria (1.0 mg mitochondrial protein/ml) incubated with various substrates: • GM: glutamate/malate (5 mM/2.5 mM) • SR: succinate/rotenone (5 mM/5 μM), • GMS: glutamate/malate/succinate (5 mM/2.5 mM/5 mM), • Palm: palmitoyl carnitine (55 μM), • Octa: octanoyl carnitine (100 μM), • TMPD/AsC: TMPD/ascorbate (0.5 mM/0.5 mM), and • TMPD/AsC/DNP: TMPD/ascorbate/DNP (0.5 mM/0.5 mM/75 μM).
JO2 was recorded in the presence of the substrate and following the addition of 1 mM ADP (adenosine diphosphate) (state 3).
The oligomycin was added to the mitochondrial suspension to determine the non-phosphorylating respiratory-rate (state 4).
(§6) The major part of the liver and the red part of each quadriceps were rinsed, and chopped into isolation medium (250 mM sucrose, 20 mM Tris-HCl and 1 mM EGTA-Tris, pH 7.4). Nuclei and cell debris were removed, by centrifugation at 800 g for 10 min. Mitochondria were then isolated from the supernatant by spinning twice at 8,000 g for 10 minutes. The mitochondrial pellet was resuspended in 0.5 ml of isolation buffer and kept on ice. Mitochondrial protein was measured by the bicinchoninic acid method (Pierce, Rockford, Ill.). The final mitochondrial suspensions were maintained on ice and were used for measurements of oxygen consumption rate and reactive oxygen species (ROS) production.
(§7) The rate of mitochondrial oxygen consumption (JO2) was measured at 30° C. in an incubation chamber with a Clark-type O2 electrode filled with 2 ml of incubation medium (125 mM KCl, 10 mM Pi-Tris, 20 mM Tris-HCl, 0.1 mM EGTA, pH 7.2). All measurements were performed using mitochondria (1.0 or 0.2 mg mitochondrial protein/ml for liver and skeletal muscle) incubated either with various substrates: glutamate/malate (5 mM/2.5 mM) and succinate (5 mM), alone or in combination, palmitoyl carnitine (55 μM) and octanoyl carnitine (100 μM). For each substrate, JO2 was recorded in the presence of the substrate alone (State 2) and following the addition of 1 mM ADP (state 3). Oligomycin (1.25 μg/mg protein) was added to the mitochondrial suspension to determine the non-phosphorylating respiratory rate (state 4). The incubation medium was constantly stirred with a built-in electromagnetic stirrer and bar flea. The efficiency of the mitochondrial oxidative phosphorylation was assessed by the state 3/state 4 ratio which measures the degree of control imposed on oxidation by phosphorylation (respiratory control ratio, RCR).

muscle mitochondria = test: Muscle mitochondrial oxygen consumption (JO2) of treated Wistar rats; type: in vivo; conditions: high dosage 25 μg/100 g BW
Protocol: as §5, with “(0.2” for “(1.0”
JO2 was recorded in the presence of the substrate and following the addition of 1 mM ADP (state 3).
The oligomycin was added to the mitochondrial suspension to determine the non-phosphorylating respiratory rate (state 4).
as §6, §7

[5] = Plasmatic concentrations of glucose, triglycerides, cholesterol, FFA and HDL on the day of sacrifice; type: in vivo, Wistar, Zucker and ZDF rats; conditions: non-diabetic Wistar rats, 3,3′-T2 treatment (dose not printed in FIG. 15A legend)
Excerpt: These measurements were done on venous blood of the rats the day of the sacrifice.
as §4
Glucose and 3-hydroxybutyrate (3-HB) were measured, enzymatically and non esterified fatty acid (NEFA) by colorimetric assay (Wako Chemicals).
Triglycerides and cholesterol were measured by classical routine automate apparatus.

N[C@@H](Cc1cc(I)c(Oc2ccc(O)c(I)c2)c(I)c1)C(=O)O [T3]
Binding to the nuclear receptors [1]: binds very efficiently

N[C@@H](Cc1cc(I)c(Oc2cc(I)c(O)c(I)c2)c(I)c1)C(=O)O [T4, Thyroxine]
Binding to the nuclear receptors [1]: binds less efficiently

N[C@@H](Cc1ccc(Oc2ccc(O)c(I)c2)c(I)c1)C(=O)O [3,3′-T2, 3′,3-diiodothyronine]
Growth rate (body weight gain) vs placebo [2]: did not show similar weight gain | Food intake vs placebo [3]: a biphasic effect was observed | Brown adipose tissue weight vs placebo [4]: significantly increased | Fat masses, all localizations (retroperitoneal, epididymal, mesenteric, subcutaneous) vs placebo [4]: significantly decreased | Muscle mass / lean body mass vs placebo [4]: not affected | Liver mitochondrial respiratory rate, non-phosphorylating (state 4, oligomycin), vs placebo (liver mitochondria): substantially higher in the low 3,5-T2 group only | Liver mitochondrial respiratory rate, phosphorylating condition (state 3), vs placebo (liver mitochondria; all substrates): very significant increased respiratory rate | Muscle mitochondrial respiration, non-phosphorylating (state 4), vs placebo (muscle mitochondria): failed to substantially affect | Muscle mitochondrial respiration, phosphorylating (state 3), vs placebo (muscle mitochondria): failed to substantially affect | Plasmatic glucose at the end of the treatment [5]: minor changes
